Assay results: patent publication US8299096B2, “Method for treating pulmonary diseases using rho kinase inhibitor compounds” (priority 2008, dated 2012)
Entries after “also recorded” stand apart in the source; their conditions may differ.

Key:
LPS-challenged mice = experiment: LPS-induced neutrophilia and cytokine production assay; assay type: in vivo, mouse; conditions: for IL-1β levels in BALF: intratracheal administration, LPS-challenged mice
Experimental: Male BALB/c mice, approximately 19 to 21 grams, were ordered from Charles River Laboratories (Raleigh, N.C.). All animals were challenged with aerosolized LPS (10 μg/ml) for 25 minutes on study day 0. LPS aerosol was generated using an Aerogen Aeroneb nebulizer and controller providing a flow of 400 μl/min and a particle size of 2-4 μm MMAD. Rolipram was administered i.p at 20 mg/kg. […] Four hours following LPS challenge, BALF was collected using a total of 3 ml of 0.9% sodium chloride containing 10% fetal calf serum. Total cell counts were determined using the Coulter Counter. For differential evaluations, BALF was centrifuged and cytospin slides prepared and stained with Hema3 stain. Manual leukocyte counts were then completed on 200 cells. The final concentration of individual leukocyte cell types per ml of BALF was determined by multiplication of the relative percentage of individual leukocytes with the total amount of cells/ml of BALF fluid. The concentration of IL-1β in the BALF samples was determined using commercially available Bio-plex kits (Bio-Rad). The analysis of cytokine levels was measured using the Bio-Plex 200 (Bio-Rad) system according to the manufacturer's instructions.

[1] = system: ovalbumin-sensitized mice; experiment: Anti-inflammatory assay in ovalbumin-sensitized mouse model of asthma (BALF cells and cytokines); assay type: in vivo; conditions: dosed i.t. to day 30, anti-inflammatory dosing paradigm
From the text: Mouse model of asthma via ovalbumin sensitization was created as described in Example 5. The anti-inflammatory dosing paradigm (FIG. 4) was utilized to evaluate the anti-inflammatory effects of experimental compounds. The anti-inflammatory dosing paradigm consists of dosing the animals once a day starting on day 27 and finishing on either day 30 or 31 (1 hr prior to the aerosolized ovalbumin challenges on days 28 to 30) but not on day 32 when hyper-reactivity evaluation occurs.
Bronchoalveolar lavage fluid (BALF) was collected by infusing 3.0 ml of saline with 10% fetal calf serum into the lungs via the trachea and then withdrawing the fluid. The total amount of cells/ml of BALF fluid was determined via manual cell count on hemocytometer. The BALF was centrifuged, supernatant removed and analyzed for cytokine concentrations as described below, and cell pellet reconstituted in 500 μL of fluid. Cytospin slides were prepared from the cell pellet using 100 μL of fluid and spinning samples for 5 minutes at 5000 rpms in a cytospin centrifuge. Following Hema3 stain, relative percentages of individual leukocytes were determined on a 200 cell count for each sample. The final concentration of individual leukocyte cell types per ml of BALF was determined by multiplication of the relative percentage of individual leukocytes with the total amount of cells/ml of BALF fluid.
The concentrations of cytokines in the BALF samples were determined using commercially available Bio-plex kits (Bio-Rad) for the detection of mouse IL-5, IL-13, and Eotaxin. The analysis of cytokine levels was measured using the Bio-Plex 200 (Bio-Rad) system according to the manufacturer's instructions.

[2] = system: ovalbumin-sensitized mice; experiment: Bronchodilator assay in ovalbumin-sensitized mouse model of asthma (Penh); assay type: in vivo
Experimental: Male BALB/c mice were ordered from Charles River Laboratories (Raleigh, N.C.). The animals were approximately 19 to 21 grams at time of receipt. Upon arrival, the animals were randomized into groups of five males per cage and assigned to a dosing group. Animals were quarantined for 7 days under test conditions. They were observed daily for general health status and ability to adapt to the water bottles.
Animals were sensitized on day 0 and 14 of study by an intraperitoneal injection with 20 μg of ovalbumin (ova) and 2.0 mg aluminum hydroxide (alum) which initiates the development of a specific T-helper (Th) cells type 2 resulting in asthmatic animals. One group of animals received an injection of saline to use as non-asthmatic control animals. All animals were challenged with aerosolized 1% ova once daily for 25 minutes on days 28, 29, and 30 (Zosky, et al. Respiratory Research, 2004; 5:15). Aerosol challenge consists of using an Aerogen Aeroneb nebulizer and controller with a particle size of 4-6 μm mass median aerodynamic diameter (MMAD) with a distribution of 400 μl per minute. This aerosol challenge is necessary to target the Th2-driven allergic inflammation in the lower airways.
The test compounds and the control vehicle were administered to animals on the day of airway hyperreactivity evaluation 30 minutes to 1 hour before the evaluation to determine the bronchodilator effects of the compounds according to the bronchodilator dosing paradigm (FIG. 3A). Compounds were administered p.o. (orally), i.p. (intraperitoneally) at 15 μMol/kg unless otherwise noted (Table 4). Alternatively, compounds were administered i.t. (intratracheally) at varying doses as shown (FIG. 3B). On day 32 of the experiment, airway hyperreactivity was evaluated by placing conscious, unrestrained animals in a whole body plethysmometer (Buxco Wilmington, N.C.) and exposing them to escalating doses of nebulized methacholine, a known bronchial constrictor which acts through the muscarinic receptors of the lungs, (doses: […]-50 mg/ml). Exposure to the methacholine doses consisted of a 3 minute period during which a nebulizer was aerosolizing the methacholine and an additional 3 minute period following the cessation of nebulization. Over this 6 minute period, the plethysmometer monitors and generates numerical values for all parameters of the breath pattern. Enhanced pause (Penh), a unitless index of airway hyperreactivity, is derived from the expiratory side of the respiratory waveform measured via the plethysmograph and is used as an indirect measure of airway resistance and hyperreactivity. […] Following the methacholine dose response, all animals were anesthetized, bled and euthanized.
Within each experiment, a mouse was given a single compound and exposed to increasing doses of methacholine [0 (baseline), 0.375, 0.75, 1.5, 3, 6, 12, 25, 50 mg/ml]. The Penh value at each of the dose levels of methacholine represents the 6-minute average response. Change from baseline (CFB) in Penh was calculated at each methacholine dose and the area under the curve (AUC) for these CFB values was calculated using the trapezoidal rule. This same approach was applied for each mouse across multiple experiments.
For statistical analyses, a linear mixed-effects model where the response was the log 10 transformed value of AUC described above was used. Data from equal experimental conditions across experiments performed on different days were pooled for statistical analysis and data reporting. The various compounds were compared adjusting for the log 10-transformed baseline value of Penh and the chamber (1 of 10) of the plethysmometer each mouse was contained in during an experiment. A random intercept for each experiment was assumed to account for possible similarities of the results obtained from a given experiment (i.e., as a “blocking effect”).
For Table 4 and Table 5, Penh values are reported as log 10 transformed AUC values. […]

[3] = Rat oral pharmacokinetics (plasma); assay type: in vivo
Experimental: Plasma (EDTA K2 anticoagulant) was collected from male, cannulated, CD Sprague Dawley rats to determine the pharmacokinetics of formulations containing compound inhibitors of Rho kinase. Each animal was dosed orally with a 4 ml/kg solution or suspension of each test compound in 10 mM acetate buffered saline, pH 4.5 at a final concentration range of 20-30 μmol/kg. Blood was collected at 0.25, 0.5, 1, 2, 4, 6, 8, and 24 hours. Plasma samples were assayed for the concentration of the test compound using an on-line, solid phase extraction LC/MS/MS analysis system.
Samples were analyzed on a QSTAR Elite, hybrid quadrupole time-of-flight mass spectrometer (Applied Biosystems, Framingham, Mass.) coupled with a Symbiosis Pharma integrated, on-line SPE-HPLC system (Spark Holland Inc., Plainsboro, N.J.). Analyst QS 2.0 software was used for instrument control, data acquisition and processing. […] Mobile Phase A consisted of 0.1% ammonium hydroxide in water and Mobile Phase B consisted of 0.1% formic acid in acetonitrile. Pharmacokinetic analyses were performed using WinNonlin software version 5.2 (Pharsight Corporation, Mountain View, Calif.).

[4] = system: rat tracheal rings pretreated with IL-1β and TNF-α or vehicle; experiment: Effect of inflammatory cytokines on tracheal relaxation; conditions: 300 nM carbachol
Experimental: Male Sprague-Dawley rats weighing 301-325 gm were sacrificed by asphyxiation in a CO2 chamber. Trachea were excised, cleaned of connective tissue and cut into cylindrical segments of 2-3 mm length. Tissues were treated for 18 hours at 37° C. in F12 media with penicillin-streptomycin and 0.1% BSA alone or with 10 ng/ml IL-1β and 100 ng/ml TNF-α. Tissues were then washed free of cytokines with Krebs buffer. Contractile tensions were measured using an isometric force transducer (Grass Instruments) as described for Example 3 and signals were analyzed using specialized software (Chart v5.5, ADInstruments). Tissues were treated with 300 nM carbachol for 10 to 15 minutes to induce a contractile response. Test Compounds were added cumulatively to the bath every 30 minutes and reductions in tension were recorded. Basal tension was subtracted from all values and data were reported as a percentage of the maximal carbachol-induced contraction. Data were fit to the Hill equation using GraphPad Prism v5 software.

[5] = system: ovalbumin-sensitized mice; experiment: Prevention of airway hyperreactivity development, anti-inflammatory dosing paradigm (Penh); assay type: in vivo, mouse; conditions: intratracheal, once a day, days 27 to 30 (1.091) or 27 to 31
IRAK4 = target: T1, IRAK4 (Homo sapiens, UniProt Q9NWZ3); experiment: Kinase panel screen, IRAK4; assay type: biochemical; conditions: 10 μM ATP
T1 construct: purchased Upstate, Millipore Bioscience Division (KinaseProfiler service)
T1 sequence (Q9NWZ3 1-460): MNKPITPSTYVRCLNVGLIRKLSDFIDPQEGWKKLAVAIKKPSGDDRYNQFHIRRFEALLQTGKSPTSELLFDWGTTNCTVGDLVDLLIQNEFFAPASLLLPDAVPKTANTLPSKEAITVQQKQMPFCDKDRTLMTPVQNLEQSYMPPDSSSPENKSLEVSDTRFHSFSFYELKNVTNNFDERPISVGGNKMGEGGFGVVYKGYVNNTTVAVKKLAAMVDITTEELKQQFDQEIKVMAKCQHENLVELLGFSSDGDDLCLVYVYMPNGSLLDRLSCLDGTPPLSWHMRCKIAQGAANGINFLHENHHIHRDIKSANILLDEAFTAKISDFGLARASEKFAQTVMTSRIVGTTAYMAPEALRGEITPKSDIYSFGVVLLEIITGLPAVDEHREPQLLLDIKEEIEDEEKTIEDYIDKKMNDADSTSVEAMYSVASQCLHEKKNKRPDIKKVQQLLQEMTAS
Experimental: (§1) Compounds of Formulae I and II were examined for activity against a selected panel of kinases using the KinaseProfiler™ enzyme profiling services (Upstate, Millipore Bioscience Division). Percent kinase activity at 10 μM and 1 μM test compound and 10 μM ATP was determined against 40 wild-type recombinant human kinases according to Upstate's standard protocol: ASK1, BTK, CSK, c-RAF, GCK, GSK3β, IKKα, IKKβ, IRAK1, IRAK4, JNK1α1, JNK2α2, JNK3, ERK1, ERK2, MAPKAP-K2, MAPKAP-K3, MEK1, MKK4, MKK6, MKK7β, Mnk2, MSK1, PAK3, PDK1, PRAK, ROCK1, Rsk2, SAPK2a, SAPK2b, SAPK3, SAPK4, SRPK1, SRPK2, Syk, TAK1, TBK1, PI3-Kβ, PI3-Kγ, PI3-Kδ.

IRAK1 = target: T2, IRAK1 (Homo sapiens, UniProt P51617); experiment: Kinase panel screen, IRAK1; assay type: biochemical; conditions: 10 μM ATP
T2 construct: purchased Upstate, Millipore Bioscience Division (KinaseProfiler service)
Experimental: as §1

GCK = target: T3, GCK (Homo sapiens, UniProt Q12851); experiment: Kinase panel screen, GCK; assay type: biochemical; conditions: 1 μM test compound, 10 μM ATP
T3 construct: purchased Upstate, Millipore Bioscience Division (KinaseProfiler service)
T3 sequence (Q12851 1-820): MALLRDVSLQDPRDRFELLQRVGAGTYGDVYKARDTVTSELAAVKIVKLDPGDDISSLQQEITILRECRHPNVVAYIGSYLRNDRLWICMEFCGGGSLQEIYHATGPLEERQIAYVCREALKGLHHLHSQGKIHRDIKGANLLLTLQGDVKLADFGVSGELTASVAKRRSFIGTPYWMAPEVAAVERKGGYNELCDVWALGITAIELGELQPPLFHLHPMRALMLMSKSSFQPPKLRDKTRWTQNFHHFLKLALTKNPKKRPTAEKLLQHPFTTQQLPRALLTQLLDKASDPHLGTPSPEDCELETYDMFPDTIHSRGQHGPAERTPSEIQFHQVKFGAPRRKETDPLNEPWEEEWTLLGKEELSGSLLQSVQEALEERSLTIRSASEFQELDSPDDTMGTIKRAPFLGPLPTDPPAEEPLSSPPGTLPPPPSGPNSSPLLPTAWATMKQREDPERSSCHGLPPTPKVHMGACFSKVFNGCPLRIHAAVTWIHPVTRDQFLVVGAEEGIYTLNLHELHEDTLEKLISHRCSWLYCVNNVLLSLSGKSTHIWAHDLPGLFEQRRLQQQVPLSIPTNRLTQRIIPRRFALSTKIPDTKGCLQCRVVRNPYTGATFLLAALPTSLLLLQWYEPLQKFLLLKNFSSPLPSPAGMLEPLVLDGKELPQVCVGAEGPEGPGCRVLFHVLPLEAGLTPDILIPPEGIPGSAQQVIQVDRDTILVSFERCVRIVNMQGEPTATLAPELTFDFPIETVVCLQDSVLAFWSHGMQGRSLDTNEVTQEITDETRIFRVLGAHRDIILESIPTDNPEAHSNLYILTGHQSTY
Experimental: as §1

Mnk2 = target: T4, Mnk2 (Homo sapiens, UniProt Q9HBH9); experiment: Kinase panel screen, Mnk2; assay type: biochemical; conditions: 10 μM ATP
T4 construct: purchased Upstate, Millipore Bioscience Division (KinaseProfiler service)
Experimental: as §1

[6] = system: A-10 rat thoracic aorta cells; experiment: PDGF-stimulated smooth muscle cell proliferation assay (BrdU); assay type: cell-based; conditions: 10 ng/mL PDGF, A-10 cells
Experimental: Effects on cell proliferation were measured using a bromodeoxyuridine (BrdU) incorporation assay. […] Serum free media containing 0.1% BSA was added to the cells. 24 hours later the media was removed and replaced with warmed serum free media. […] Proliferation was then monitored using the BrdU Cell Proliferation Assay, HTS (Calbiochem cat. #HTS01). BrdU was allowed to incorporate into cells for 24 hours prior to the addition of fixative/denaturing solution and the fluorometric detection of incorporated BrdU using a BrdU antibody as per manufacturer's directions. Data are reported as a percent of the PDGF-stimulated BrdU incorporation.

[7] = rat, oral, 20-30 μmol/kg, plasma, mean n = 3

T4 sequence (Q9HBH9 whole entry): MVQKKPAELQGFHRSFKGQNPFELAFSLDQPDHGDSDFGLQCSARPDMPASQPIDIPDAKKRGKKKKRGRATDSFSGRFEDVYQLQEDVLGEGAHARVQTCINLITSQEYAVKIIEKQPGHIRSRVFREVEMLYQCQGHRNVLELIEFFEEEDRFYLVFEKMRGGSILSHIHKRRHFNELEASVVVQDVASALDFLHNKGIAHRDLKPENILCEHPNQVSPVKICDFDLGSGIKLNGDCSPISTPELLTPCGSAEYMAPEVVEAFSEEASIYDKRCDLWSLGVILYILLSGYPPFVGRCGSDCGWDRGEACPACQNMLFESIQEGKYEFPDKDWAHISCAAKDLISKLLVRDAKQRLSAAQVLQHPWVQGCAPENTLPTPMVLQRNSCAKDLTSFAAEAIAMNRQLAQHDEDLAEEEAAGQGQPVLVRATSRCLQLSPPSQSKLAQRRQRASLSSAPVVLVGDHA
T2 sequence (P51617 whole entry): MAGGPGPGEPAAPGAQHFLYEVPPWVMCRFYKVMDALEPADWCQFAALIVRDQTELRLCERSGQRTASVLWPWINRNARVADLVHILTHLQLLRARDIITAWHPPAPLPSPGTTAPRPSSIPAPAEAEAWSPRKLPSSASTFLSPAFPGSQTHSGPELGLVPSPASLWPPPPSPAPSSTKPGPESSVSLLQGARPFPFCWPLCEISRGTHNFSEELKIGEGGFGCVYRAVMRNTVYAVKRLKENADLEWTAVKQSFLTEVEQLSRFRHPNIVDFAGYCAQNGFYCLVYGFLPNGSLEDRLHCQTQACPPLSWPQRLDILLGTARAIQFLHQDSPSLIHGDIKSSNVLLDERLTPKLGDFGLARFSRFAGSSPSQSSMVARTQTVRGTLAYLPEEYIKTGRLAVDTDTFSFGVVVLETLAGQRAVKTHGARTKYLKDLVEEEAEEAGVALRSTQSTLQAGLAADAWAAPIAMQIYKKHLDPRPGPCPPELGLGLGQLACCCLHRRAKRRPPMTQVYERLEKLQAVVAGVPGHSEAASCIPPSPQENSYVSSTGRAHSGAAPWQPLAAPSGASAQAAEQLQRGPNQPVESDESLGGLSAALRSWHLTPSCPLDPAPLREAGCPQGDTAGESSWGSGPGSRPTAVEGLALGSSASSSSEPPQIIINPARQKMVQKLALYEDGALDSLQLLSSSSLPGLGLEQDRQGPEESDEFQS

SMILES	IL-1β levels in BALF (LPS-challenged mice)	Prevention of airway hyperreactivity [5]	Percent inhibition, IRAK4 (IRAK4; 1 μM test compound) [%]	Percent inhibition, IRAK4 (IRAK4; 10 μM test compound) [%]	Percent inhibition, IRAK1 (IRAK1; 1 μM test compound) [%]	Percent inhibition, IRAK1 (IRAK1; 10 μM test compound) [%]	percent inhibition at 1 µM (GCK) [%]	Percent inhibition, Mnk2 (Mnk2; 1 μM test compound) [%]	Percent inhibition, Mnk2 (Mnk2; 10 μM test compound) [%]	also measured
CS(=O)(=O)Nc1cccc(CN2CCC[C@H](Nc3ccc4[nH]ncc4c3)C2)c1 [Compound 1.091]	reduction	–	–	–	–	–	–	–	–	Efficacy on neutrophilia compared to rolipram dosed i.p. (LPS-challenged mice; dosed intratracheally): similar; LPS-induced pulmonary neutrophilia (BALF) (LPS-challenged mice; intratracheal dosing one hour prior to LPS challenge, mice): significant reduction; also recorded: dose-dependent inhibition; Eosinophils in BALF [1]: reduction of eosinophils; Reduction in airway hyperresponsiveness ([2]; i.p. route of administration, compared to oral dosing): enhanced reduction; Bronchodilatory response ([2]; intratracheal administration): robust bronchodilatory response; Reduction in airway hyperresponsivness ([2]; oral doses): did not yield a significant reduction; Oral bioavailability ([3]; oral dosing): poor; AUC (0-last) [3, 7]: below the level of quantification; Cmax [3, 7]: below the level of quantification; Potency in cytokine-pretreated versus vehicle-pretreated tissues [4]: slightly more potent in cytokine-pretreated tissues; Relaxation of tracheal rings from vehicle-pretreated and cytokine-pretreated tissues ([4]; 10 ng/ml IL-1β and 100 ng/ml TNF-α, 18 hours): fully efficacious
Cc1ccc(CN2CCC[C@@H](Nc3ccc4[nH]ncc4c3)C2)cc1OCCO [Compound 1.161]	–	prevention of airway hyperreactivity	96	109	106	99	96	108	106	–
CSc1ccc(CN2CC[C@@H](Nc3cccc4cnccc34)C2)cc1 [Compound 2.026]	–	–	–	–	–	–	–	–	–	Percent of PDGF Induced Proliferation at 1 μM Avg ([6]; 1 μM): 74.5%; Percent of PDGF Induced Proliferation at 10 μM Avg ([6]; 10 μM): 52.0%
NC(=O)Cn1ccc2cc(CN3CC[C@@H](Nc4cccc5cnccc45)C3)ccc21 [Compound 2.059]	reduction	prevention of airway hyperreactivity	63	22	87	30	75	49	12	–
